Test: Percent swelling of water-soluble film strips submerged in detergent formula
Format: physicochemical
Conditions: Minitab mixture regression on solvent component proportions, Formulas 7-16
Procedure: The term % swelling as used in the present application means the percent increase or decrease in weight, for example the weight of a pouch strip, such as a polyvinyl alcohol strip, following submersion in a detergent composition for a given period of time, for example twenty-four hours (hr). The % swelling is calculated as described in the examples by taking a post-soaking weight, subtracting an initial, pre-soaking weight, and dividing by the initial, pre-soaking weight. To measure the percent (%) swelling, a fresh sheet of film was traced and cut into three identical film strips (3 cm wide by 8.5 cm long) for each formula being tested. Strips were labeled #1, #2, and #3 and placed into a tared petri dish one by one, recording the weights of each piece of film individually. Strips #1 and #2 were placed parallel to one another on the bottom of the petri dish and strip #3 was laid perpendicularly over strips #1 and #2. The petri dish was then filled half way, ensuring all film strips were submerged in the formula being tested. The petri dish was wrapped with parafilm, sealing around the edge of the petri dish. […] The cleaned film strip #3 was placed into a clean, tared petri dish lid, and the final weight of the film strip was recorded. […] Percent (%) swelling ratios were determined for Formulas 7-16 using polyvinyl alcohol (PVA) strips. […]

Row | estimated regression coefficient for % swelling | SMILES
1 | 0.8037 | OCC(O)CO [Glycerin]
2 | 0.4263 | CC(O)CO (centres unmarked) [PG, Propylene Glycol]

Source: patent US12692463B2, “Blends of alcohol ethoxylate and methyl ester sulfonate in unit dose products for improved mildness” (Henkel AG & Co. KGaA, priority 2023, dated 2026)
